What was measured:
[1] = Expected rise in serum 25-hydroxyvitamin D3 in a human after a single dose; format: in vivo; conditions: single dose of 50 μg to a human (about 60 kg)
[2] = Example 1: single-dose pharmacokinetics of serum 25-hydroxyvitamin D3 in miniature swine; format: in vivo; conditions: Yucatan miniature swine
Procedure: Nine oral vitamin D formulations were prepared according to Table 3 below by homogeneously mixing the identified components in the amounts shown and filling the mixtures into hard gelatin capsules. Formulation 9 is an immediate-release formulation according to the prior art, wherein MIGLYOL 812N is the trade name for caprylic/capric triglycerides, available from CONDEA Chemie GmbH of Cranford, N.J., USA. […] Each group included five animals.
Blood was collected pre-dose, and at 0.5, 1, 2, 4, 6, 8, 12, 24, 48, 96, 168, 240, 336, 432, 504, 576, and 672 hours post dosing. Serum 25-hydroxyvitamin D3 levels were assayed by Liquid Chromatography/Mass Spectrometry/Mass Spectrometry (LC MS/MS).

[3] = 250 μg via intravenous injection, AVG

## C=C1CC[C@H](O)C/C1=C/C=C1\CCC[C@]2(C)[C@@H]([C@H](C)CCCC(C)(C)O)CC[C@@H]12 [25-hydroxyvitamin D3]
[1]
  expected increase in serum levels of 25-hydroxyvitamin D3: about 1.4 ng/ml

## C=C1CC[C@H](O)C/C1=C/C=C1\CCC[C@]2(C)[C@@H]([C@H](C)CCCC(C)(C)O)CC[C@@H]12 [Group 10, 25-hydroxyvitamin D3]
[2]; 250 μg 25-hydroxyvitamin D3 via intravenous injection, AVG
  AUC (0-672 hr): 15038.0 ng·h/mL
[2]; 250 μg via intravenous injection
  BA: 100.0%
[2]; [3]
  AUC (0-INF): 16616.1 ng·h/mL
  Cmax: 154.9 ng/mL
  T1/2: 132.4 h
  Tmax: 1.5 h

From patent US9498486B1, “Method for controlled release oral dosage of a vitamin D compound” (OPKO RENAL, LLC, priority 2007, dated 2016)
